Publication PMC9030254, “Target Hopping from Protein Kinases to PXR: Identification of Small-Molecule Protein Kinase Inhibitors as Selective Modulators of Pregnane X Receptor from TüKIC Library” (Cells, 2022)

How the values were obtained:
Assay in all cases: Kinase profiling
Format in all cases: biochemical
[1] = target: T1, RPS6KA1 (Homo sapiens, UniProt Q15418)
T1 construct: purchased ProQinase (Freiburg, Germany)
Protocol: (§1) The analysis was performed by ProQinase (Freiburg, Germany).

[2] = target: T2, PRK2 (Homo sapiens, UniProt Q16513)
T2 construct: purchased ProQinase (Freiburg, Germany)
T2 sequence (Q16513 whole entry): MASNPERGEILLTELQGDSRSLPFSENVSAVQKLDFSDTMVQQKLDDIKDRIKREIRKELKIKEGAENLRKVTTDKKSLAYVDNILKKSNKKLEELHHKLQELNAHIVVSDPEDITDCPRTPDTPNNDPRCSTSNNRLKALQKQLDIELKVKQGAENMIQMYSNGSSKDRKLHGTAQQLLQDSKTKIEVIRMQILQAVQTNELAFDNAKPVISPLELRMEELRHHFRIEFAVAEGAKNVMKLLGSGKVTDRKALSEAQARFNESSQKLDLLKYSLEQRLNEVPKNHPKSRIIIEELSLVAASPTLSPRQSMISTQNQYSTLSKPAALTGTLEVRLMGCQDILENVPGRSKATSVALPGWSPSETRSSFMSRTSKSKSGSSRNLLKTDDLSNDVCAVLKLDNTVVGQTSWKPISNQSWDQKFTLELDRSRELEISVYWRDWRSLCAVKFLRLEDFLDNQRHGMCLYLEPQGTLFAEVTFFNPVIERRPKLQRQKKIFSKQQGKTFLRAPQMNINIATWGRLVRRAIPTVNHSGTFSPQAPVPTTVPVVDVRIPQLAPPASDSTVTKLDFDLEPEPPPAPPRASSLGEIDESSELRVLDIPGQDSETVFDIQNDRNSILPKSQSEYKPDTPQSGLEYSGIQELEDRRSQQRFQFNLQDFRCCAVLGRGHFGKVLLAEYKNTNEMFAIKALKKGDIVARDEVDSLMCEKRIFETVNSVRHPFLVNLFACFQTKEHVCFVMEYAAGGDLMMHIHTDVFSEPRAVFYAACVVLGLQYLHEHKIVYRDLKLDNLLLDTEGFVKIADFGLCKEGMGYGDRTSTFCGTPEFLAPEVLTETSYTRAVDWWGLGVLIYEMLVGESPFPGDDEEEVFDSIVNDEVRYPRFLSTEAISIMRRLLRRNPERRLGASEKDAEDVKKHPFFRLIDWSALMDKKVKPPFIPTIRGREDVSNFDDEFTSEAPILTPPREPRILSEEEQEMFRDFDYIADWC
Protocol: as §1

[3] = target: T3, ZAK (Homo sapiens, UniProt Q9NYL2)
T3 construct: purchased ProQinase (Freiburg, Germany)
T3 sequence (Q9NYL2 whole entry): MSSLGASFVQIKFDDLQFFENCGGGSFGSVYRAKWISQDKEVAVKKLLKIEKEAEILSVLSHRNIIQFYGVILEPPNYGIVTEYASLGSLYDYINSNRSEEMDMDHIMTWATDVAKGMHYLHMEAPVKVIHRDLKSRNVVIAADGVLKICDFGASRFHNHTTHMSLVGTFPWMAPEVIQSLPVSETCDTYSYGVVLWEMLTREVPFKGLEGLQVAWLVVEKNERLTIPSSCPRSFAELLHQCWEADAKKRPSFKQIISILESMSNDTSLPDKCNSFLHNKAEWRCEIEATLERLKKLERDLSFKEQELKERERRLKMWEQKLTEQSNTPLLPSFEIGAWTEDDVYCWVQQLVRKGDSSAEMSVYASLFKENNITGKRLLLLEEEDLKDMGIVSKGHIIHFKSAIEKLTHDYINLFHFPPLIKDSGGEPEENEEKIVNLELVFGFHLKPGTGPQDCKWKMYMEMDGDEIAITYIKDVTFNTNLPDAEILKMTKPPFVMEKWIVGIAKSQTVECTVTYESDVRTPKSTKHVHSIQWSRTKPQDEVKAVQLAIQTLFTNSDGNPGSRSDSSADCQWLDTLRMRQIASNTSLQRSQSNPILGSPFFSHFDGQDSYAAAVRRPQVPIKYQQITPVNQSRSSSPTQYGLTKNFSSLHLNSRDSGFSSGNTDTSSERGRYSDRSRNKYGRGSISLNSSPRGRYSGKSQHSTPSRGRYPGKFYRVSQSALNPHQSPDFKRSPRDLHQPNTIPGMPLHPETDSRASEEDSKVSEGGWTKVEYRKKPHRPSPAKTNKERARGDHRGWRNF
Protocol: as §1

[4] = target: T4, EPHA3 (Homo sapiens, UniProt P29320)
T4 construct: purchased ProQinase (Freiburg, Germany)
T4 sequence (P29320 21-983): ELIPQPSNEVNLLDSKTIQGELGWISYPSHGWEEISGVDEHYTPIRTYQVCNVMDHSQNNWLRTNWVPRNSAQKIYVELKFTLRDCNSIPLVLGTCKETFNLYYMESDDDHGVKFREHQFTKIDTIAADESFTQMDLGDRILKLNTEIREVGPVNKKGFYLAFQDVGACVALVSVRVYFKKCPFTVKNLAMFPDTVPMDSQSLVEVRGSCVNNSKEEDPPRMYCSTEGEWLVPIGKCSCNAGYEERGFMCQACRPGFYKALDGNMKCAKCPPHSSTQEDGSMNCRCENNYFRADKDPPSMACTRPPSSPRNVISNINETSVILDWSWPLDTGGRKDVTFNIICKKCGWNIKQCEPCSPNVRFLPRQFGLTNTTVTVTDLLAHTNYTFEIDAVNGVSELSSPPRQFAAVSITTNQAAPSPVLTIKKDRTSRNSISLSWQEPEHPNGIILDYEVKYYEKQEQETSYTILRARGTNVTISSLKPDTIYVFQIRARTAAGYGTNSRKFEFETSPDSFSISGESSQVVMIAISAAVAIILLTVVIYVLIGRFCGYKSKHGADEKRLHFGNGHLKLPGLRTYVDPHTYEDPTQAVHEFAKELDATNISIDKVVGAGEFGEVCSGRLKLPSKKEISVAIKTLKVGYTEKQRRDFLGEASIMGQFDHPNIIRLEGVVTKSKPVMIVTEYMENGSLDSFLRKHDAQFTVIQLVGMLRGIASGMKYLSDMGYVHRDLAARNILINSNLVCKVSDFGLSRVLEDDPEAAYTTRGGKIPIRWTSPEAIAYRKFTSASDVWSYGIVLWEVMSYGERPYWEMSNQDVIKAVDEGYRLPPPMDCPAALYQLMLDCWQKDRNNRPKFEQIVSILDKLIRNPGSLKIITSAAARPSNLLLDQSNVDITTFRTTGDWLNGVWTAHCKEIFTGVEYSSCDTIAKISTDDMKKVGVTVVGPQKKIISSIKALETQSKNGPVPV
Protocol: as §1

[5] = target: T5, CDK19/CycC (Homo sapiens, UniProt Q9BWU1)
T5 construct: purchased ProQinase (Freiburg, Germany)
T5 sequence (Q9BWU1 whole entry): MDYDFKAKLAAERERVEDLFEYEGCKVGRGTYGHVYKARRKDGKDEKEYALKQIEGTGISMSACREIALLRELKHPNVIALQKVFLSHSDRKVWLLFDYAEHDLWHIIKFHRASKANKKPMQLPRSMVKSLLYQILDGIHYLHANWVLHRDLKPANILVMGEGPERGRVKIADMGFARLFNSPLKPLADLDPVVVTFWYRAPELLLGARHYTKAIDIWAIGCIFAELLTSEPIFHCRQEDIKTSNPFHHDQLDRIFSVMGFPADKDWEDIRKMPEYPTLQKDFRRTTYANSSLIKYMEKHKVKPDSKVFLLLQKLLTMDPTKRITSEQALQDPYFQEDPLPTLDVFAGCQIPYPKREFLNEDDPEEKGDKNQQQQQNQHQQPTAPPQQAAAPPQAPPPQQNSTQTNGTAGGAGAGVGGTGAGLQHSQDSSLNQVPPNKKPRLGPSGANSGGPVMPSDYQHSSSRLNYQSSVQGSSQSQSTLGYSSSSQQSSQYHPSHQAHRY
T5 sequence (P24863 whole entry partner): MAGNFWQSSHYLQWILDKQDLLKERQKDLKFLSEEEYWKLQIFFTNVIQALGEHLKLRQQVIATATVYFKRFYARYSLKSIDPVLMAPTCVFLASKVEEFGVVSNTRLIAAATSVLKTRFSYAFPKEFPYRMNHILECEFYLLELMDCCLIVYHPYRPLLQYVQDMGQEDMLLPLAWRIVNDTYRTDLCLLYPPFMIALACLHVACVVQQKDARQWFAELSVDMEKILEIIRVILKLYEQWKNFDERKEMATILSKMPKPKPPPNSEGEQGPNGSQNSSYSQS
Protocol: as §1

[6] = target: T6, CK2alpha2 (Homo sapiens, UniProt P19784)
T6 construct: purchased ProQinase (Freiburg, Germany)
T6 sequence (P19784 whole entry): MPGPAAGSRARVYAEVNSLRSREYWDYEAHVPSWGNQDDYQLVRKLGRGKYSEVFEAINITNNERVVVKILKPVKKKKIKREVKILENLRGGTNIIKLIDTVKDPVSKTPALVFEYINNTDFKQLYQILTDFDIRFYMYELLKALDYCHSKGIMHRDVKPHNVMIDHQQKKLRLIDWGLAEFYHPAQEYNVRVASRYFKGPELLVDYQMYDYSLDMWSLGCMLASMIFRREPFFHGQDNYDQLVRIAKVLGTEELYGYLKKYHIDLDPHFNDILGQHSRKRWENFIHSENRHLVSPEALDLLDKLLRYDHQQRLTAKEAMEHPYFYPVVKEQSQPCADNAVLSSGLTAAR
Protocol: as §1

[7] = target: T7, INSRR (Homo sapiens, UniProt P14616)
T7 construct: purchased ProQinase (Freiburg, Germany)
Protocol: as §1

[8] = target: T8, TAOK2 (Homo sapiens, UniProt Q9UL54)
T8 construct: purchased ProQinase (Freiburg, Germany)
T8 sequence (Q9UL54 1-1235): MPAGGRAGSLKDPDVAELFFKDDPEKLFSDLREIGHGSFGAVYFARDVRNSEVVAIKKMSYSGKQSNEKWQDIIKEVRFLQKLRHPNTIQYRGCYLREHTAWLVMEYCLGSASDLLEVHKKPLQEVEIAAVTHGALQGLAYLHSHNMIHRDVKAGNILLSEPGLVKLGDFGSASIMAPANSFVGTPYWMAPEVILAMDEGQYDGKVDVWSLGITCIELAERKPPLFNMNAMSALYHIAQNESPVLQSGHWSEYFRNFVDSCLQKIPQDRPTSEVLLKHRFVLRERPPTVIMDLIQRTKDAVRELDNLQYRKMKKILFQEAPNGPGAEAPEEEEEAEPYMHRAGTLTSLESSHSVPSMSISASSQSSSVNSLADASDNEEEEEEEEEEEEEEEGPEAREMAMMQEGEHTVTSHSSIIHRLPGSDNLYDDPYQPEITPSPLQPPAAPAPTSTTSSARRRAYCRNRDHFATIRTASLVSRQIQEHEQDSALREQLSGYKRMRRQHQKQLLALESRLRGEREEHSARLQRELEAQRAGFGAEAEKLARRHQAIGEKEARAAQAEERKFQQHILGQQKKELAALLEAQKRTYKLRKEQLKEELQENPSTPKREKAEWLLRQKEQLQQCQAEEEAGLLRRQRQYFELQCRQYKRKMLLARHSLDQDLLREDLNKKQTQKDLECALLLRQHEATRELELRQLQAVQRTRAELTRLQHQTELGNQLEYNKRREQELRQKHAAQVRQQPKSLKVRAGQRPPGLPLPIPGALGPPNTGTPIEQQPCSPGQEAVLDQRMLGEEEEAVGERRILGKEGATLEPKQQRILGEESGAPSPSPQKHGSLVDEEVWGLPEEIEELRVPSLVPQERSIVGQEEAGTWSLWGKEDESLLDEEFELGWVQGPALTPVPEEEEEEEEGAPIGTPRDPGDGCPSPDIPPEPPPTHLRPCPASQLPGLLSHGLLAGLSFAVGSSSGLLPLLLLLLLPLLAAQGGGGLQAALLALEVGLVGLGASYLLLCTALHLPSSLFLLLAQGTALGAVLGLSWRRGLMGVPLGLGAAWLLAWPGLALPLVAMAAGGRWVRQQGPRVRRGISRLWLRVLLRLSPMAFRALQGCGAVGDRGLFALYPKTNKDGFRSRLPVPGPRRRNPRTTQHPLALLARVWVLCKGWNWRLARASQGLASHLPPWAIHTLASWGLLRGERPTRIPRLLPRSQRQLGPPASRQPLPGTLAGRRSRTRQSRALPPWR
Protocol: as §1

[9] = target: T9, CDK1/CycE1 (Homo sapiens, UniProt P06493)
T9 construct: purchased ProQinase (Freiburg, Germany)
T9 sequence (P06493 whole entry): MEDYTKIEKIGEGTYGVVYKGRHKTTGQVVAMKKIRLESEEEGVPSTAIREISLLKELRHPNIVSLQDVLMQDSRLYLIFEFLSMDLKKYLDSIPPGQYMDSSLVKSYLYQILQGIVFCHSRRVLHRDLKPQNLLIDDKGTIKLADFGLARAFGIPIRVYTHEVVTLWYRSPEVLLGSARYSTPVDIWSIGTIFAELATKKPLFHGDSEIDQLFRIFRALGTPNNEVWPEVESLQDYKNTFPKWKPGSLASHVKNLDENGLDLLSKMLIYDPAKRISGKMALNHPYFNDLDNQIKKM
T9 sequence (P24864 whole entry partner): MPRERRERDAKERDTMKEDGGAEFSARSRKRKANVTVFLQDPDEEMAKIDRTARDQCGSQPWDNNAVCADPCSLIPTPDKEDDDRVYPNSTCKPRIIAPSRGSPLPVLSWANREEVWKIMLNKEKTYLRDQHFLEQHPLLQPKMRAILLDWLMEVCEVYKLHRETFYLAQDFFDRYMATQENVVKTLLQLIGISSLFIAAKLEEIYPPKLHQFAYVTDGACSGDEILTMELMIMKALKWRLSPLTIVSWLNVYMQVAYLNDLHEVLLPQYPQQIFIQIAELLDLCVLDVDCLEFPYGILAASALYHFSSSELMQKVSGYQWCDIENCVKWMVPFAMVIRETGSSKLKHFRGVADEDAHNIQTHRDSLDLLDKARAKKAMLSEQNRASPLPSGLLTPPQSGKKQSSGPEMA
Protocol: as §1

T1 sequence (Q15418 whole entry): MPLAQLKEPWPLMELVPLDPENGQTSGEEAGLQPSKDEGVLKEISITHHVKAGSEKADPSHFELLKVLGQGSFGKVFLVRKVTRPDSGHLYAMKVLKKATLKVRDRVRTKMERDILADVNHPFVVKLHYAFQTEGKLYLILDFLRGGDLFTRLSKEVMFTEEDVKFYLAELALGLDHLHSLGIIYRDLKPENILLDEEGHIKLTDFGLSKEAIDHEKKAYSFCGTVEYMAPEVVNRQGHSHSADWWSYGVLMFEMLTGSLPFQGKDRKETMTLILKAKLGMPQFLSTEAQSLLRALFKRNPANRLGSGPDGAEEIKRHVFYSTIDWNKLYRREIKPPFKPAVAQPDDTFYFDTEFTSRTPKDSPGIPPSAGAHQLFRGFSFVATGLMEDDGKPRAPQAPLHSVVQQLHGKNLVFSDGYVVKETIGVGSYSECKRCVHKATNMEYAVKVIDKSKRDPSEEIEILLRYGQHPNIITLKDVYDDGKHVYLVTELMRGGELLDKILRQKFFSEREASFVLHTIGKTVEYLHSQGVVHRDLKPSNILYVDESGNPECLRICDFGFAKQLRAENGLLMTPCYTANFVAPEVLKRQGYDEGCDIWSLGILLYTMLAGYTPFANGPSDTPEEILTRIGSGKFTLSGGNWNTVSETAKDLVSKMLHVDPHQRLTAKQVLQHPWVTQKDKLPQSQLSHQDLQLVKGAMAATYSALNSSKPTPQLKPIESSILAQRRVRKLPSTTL

Compound | Residual activity ([1]; 1.0E-05 M) | Residual activity ([1]; 1.0E-06 M) | Residual activity ([2]; 1.0E-05 M) | Residual activity ([2]; 1.0E-06 M) | Residual activity ([3]; 1.0E-05 M) | Residual activity ([3]; 1.0E-06 M) | Residual activity ([4]; 1.0E-05 M) | Residual activity ([4]; 1.0E-06 M) | Residual activity ([5]; 1.0E-05 M) | Residual activity ([5]; 1.0E-06 M) | Residual activity ([6]; 1.0E-05 M) | Residual activity ([6]; 1.0E-06 M) | Residual activity ([7]; 1.0E-05 M) | Residual activity ([7]; 1.0E-06 M) | Residual activity ([8]; 1.0E-05 M) | Residual activity ([8]; 1.0E-06 M) | Residual activity ([9]; 1.0E-05 M) | Residual activity ([9]; 1.0E-06 M)
O=C(Cc1ccccc1)Nc1ccc(F)c(Nc2ccc3c(c2)CCCCC3=O)c1 [Compound 100] | 96 % of control | 110 % of control | 97 % of control | 94 % of control | 102 % of control | 109 % of control | 86 % of control | 96 % of control | 77 % of control | 81 % of control | 134 % of control | 137 % of control | 90 % of control | 92 % of control | 97 % of control | 90 % of control | 100 % of control | 102 % of control
O=C(Nc1ccc(F)c(Nc2ccc3c(c2)CCCCC3=O)c1)c1cccc(F)c1 [Compound 109] | 95 % of control | 96 % of control | 96 % of control | 90 % of control | 106 % of control | 106 % of control | 94 % of control | 92 % of control | 74 % of control | 83 % of control | 118 % of control | 119 % of control | 83 % of control | 92 % of control | 108 % of control | 104 % of control | 98 % of control | 96 % of control
